Results from patent US5250283A, “Organic contrast agent analog and method of making same” (priority 1992, dated 1993).
Where a name gives a salt, the structure may show the parent alone.

Legend:
[1] = Urinary excretion after i.v. IOP or TFA-IOP in rats; format: in vivo; details: rat
[2] = Plasma concentration after i.v. IOP or TFA-IOP in rats; format: in vivo; details: rat
[3] = Biliary excretion and bile flow after i.v. TFA-IOP (100 umol/kg) or IOP (100 in text, 104 umol/kg in tables) in rats; details: for Percentage of dose per kg. body wt.: rat bile; for Percentage of dose per kg. body wt. / Bile flow / Bile flow per kg b.w. / Bile flow per kg l.w. / Biliary excretion rate / Biliary excretion rate per kg b.w. / Biliary excretion rate per kg l.w. / umoles in bile sample: i.v.
Method: Tissues examined included liver, spleen, upper GI, lower GI, kidney, lung and heart. The length of each study was 90 minutes, during which time bile, urine and plasma samples were taken to monitor uptake and excretion. NMR relaxation rates for liver and plasma were also examined to note whether uptake of either compound might possible alter these parameters.

Question: Which Urine concentration ([1]; 0-20 min) does the source give for CCC(Cc1c(I)cc(I)c(NC(=O)C(F)(F)F)c1I)C(=O)O (stereo not shown) [TFA-IOP, N-trifluoroacetyl-iopanoic acid] here?
Answer: 0 µM

Question: What about the Urine concentration ([1]; 20-40 min) of the same compound?
Answer: 0 µM

Question: What about the concentration at 10 min ([2]; plasma, iv, 100 umol/kg, 10 min) of the same compound?
Answer: 863 µM

Question: What about the concentration at 20 min ([2]; plasma, iv, 100 umol/kg, 20 min) of the same compound?
Answer: 604 µM

Question: What about the concentration at 0.5 h ([2]; plasma, iv, 100 umol/kg, 30 min) of the same compound?
Answer: 573 µM

Question: What about the concentration at 40 min ([2]; plasma, iv, 100 umol/kg, 40 min) of the same compound?
Answer: 510 µM

Question: What about the concentration at 50 min ([2]; plasma, iv, 100 umol/kg, 50 min) of the same compound?
Answer: 469 µM

Question: What about the concentration at 1 h ([2]; plasma, iv, 100 umol/kg, 60 min) of the same compound?
Answer: 415 µM

Question: And the concentration at 70 min ([2]; plasma, iv, 100 umol/kg, 70 min)?
Answer: 374 µM

Question: What about the concentration at 80 min ([2]; plasma, iv, 100 umol/kg, 80 min) of the same compound?
Answer: 403 µM

Question: And the concentration at 1.5 h ([2]; plasma, iv, 100 umol/kg, 90 min)?
Answer: 360 µM

Question: What about the Plasma concentration ([2]; 0 min) of the same compound?
Answer: 0 nM

Question: And the “Percentage of dose per kg. body wt.” value ([3]; 0-10 min)?
Answer: 6.48 PERCENTAGE OF DOSE per kg. bod

Question: What about the “Percentage of dose per kg. body wt.” value ([3]; 10-20 min) of the same compound?
Answer: 11.22 PERCENTAGE OF DOSE per kg. bod

Question: And the “Percentage of dose per kg. body wt.” value ([3]; 20-30 min)?
Answer: 13.78 PERCENTAGE OF DOSE per kg. bod

Question: What about the “Percentage of dose per kg. body wt.” value ([3]; 30-40 min) of the same compound?
Answer: 12.34 PERCENTAGE OF DOSE per kg. bod

Question: What about the “Percentage of dose per kg. body wt.” value ([3]; 40-50 min) of the same compound?
Answer: 12.30 PERCENTAGE OF DOSE per kg. bod

Question: What about the “Percentage of dose per kg. body wt.” value ([3]; 50-60 min) of the same compound?
Answer: 12.60 PERCENTAGE OF DOSE per kg. bod

Question: What about the “Percentage of dose per kg. body wt.” value ([3]; 60-70 min) of the same compound?
Answer: 7.73 PERCENTAGE OF DOSE per kg. bod

Question: What about the “Percentage of dose per kg. body wt.” value ([3]; 70-80 min) of the same compound?
Answer: 7.44 PERCENTAGE OF DOSE per kg. bod

Question: And the “Percentage of dose per kg. body wt.” value ([3]; 80-90 min)?
Answer: 6.37 PERCENTAGE OF DOSE per kg. bod

Question: What about the “Percentage of dose per kg. body wt.” value ([3]; period 10-0 min (pre-injection)) of the same compound?
Answer: .70 PERCENTAGE OF DOSE per kg. bod

Question: What about the Cmax at 1.5 h ([3]; rat, bile, iv, 100 umol/kg) of the same compound?
Answer: 0.5 µM

Question: And the concentration at 0 h ([3]; rat, bile, iv, 100 umol/kg)?
Answer: 635 µM

Question: What about the concentration at 5 min ([3]; rat, bile, iv, 100 umol/kg) of the same compound?
Answer: 3010 µM

Question: And the concentration at 10 min ([3]; rat, bile, iv, 100 umol/kg)?
Answer: 3010 µM

Question: What about the concentration at 0.25 h ([3]; rat, bile, iv, 100 umol/kg) of the same compound?
Answer: 5780 µM

Question: And the concentration at 20 min ([3]; rat, bile, iv, 100 umol/kg)?
Answer: 5780 µM

Question: What about the concentration at 25 min ([3]; rat, bile, iv, 100 umol/kg) of the same compound?
Answer: 6440 µM

Question: And the concentration at 0.5 h ([3]; rat, bile, iv, 100 umol/kg)?
Answer: 6440 µM

Question: And the concentration at 35 min ([3]; rat, bile, iv, 100 umol/kg)?
Answer: 7800 µM

Question: What about the concentration at 40 min ([3]; rat, bile, iv, 100 umol/kg) of the same compound?
Answer: 7800 µM

Question: And the concentration at 50 min ([3]; rat, bile, iv, 100 umol/kg)?
Answer: 7640 µM

Question: What about the concentration at 55 min ([3]; rat, bile, iv, 100 umol/kg) of the same compound?
Answer: 8460 µM

Question: And the concentration at 1 h ([3]; rat, bile, iv, 100 umol/kg)?
Answer: 8460 µM

Question: And the concentration at 65 min ([3]; rat, bile, iv, 100 umol/kg)?
Answer: 5370 µM

Question: And the concentration at 70 min ([3]; rat, bile, iv, 100 umol/kg)?
Answer: 5370 µM

Question: What about the concentration at 1.25 h ([3]; rat, bile, iv, 100 umol/kg) of the same compound?
Answer: 5310 µM

Question: And the concentration at 80 min ([3]; rat, bile, iv, 100 umol/kg)?
Answer: 5310 µM

Question: And the concentration at 85 min ([3]; rat, bile, iv, 100 umol/kg)?
Answer: 4660 µM

Question: What about the concentration at 1.5 h ([3]; rat, bile, iv, 100 umol/kg) of the same compound?
Answer: 4660 µM

Question: What about the dose excreted at 1.5 h ([3]; rat, bile, iv, 100 umol/kg) of the same compound?
Answer: 40%

Question: What about the Bile flow ([3]; rat, 0-10 min) of the same compound?
Answer: .04071 mL/min

Question: What about the “Bile flow per kg b.w.” value ([3]; rat, 0-10 min) of the same compound?
Answer: .09359 ml/min per kg b.w.

Question: What about the “Bile flow per kg l.w.” value ([3]; rat, 0-10 min) of the same compound?
Answer: 3.127 ml/min per kg l.w.

Question: What about the Biliary excretion rate ([3]; rat, 0-10 min) of the same compound?
Answer: .123 µmol/min

Question: What about the “Biliary excretion rate per kg b.w.” value ([3]; rat, 0-10 min) of the same compound?
Answer: .282 umoles/min per kg b.w.

Question: And the “Biliary excretion rate per kg l.w.” value ([3]; rat, 0-10 min)?
Answer: 9.411 umoles/min per kg l.w.

Question: What about the “umoles in bile sample” value ([3]; rat, 0-10 min) of the same compound?
Answer: 1.23 UMOLES

Question: And the Bile flow ([3]; rat, 10-20 min)?
Answer: .03675 mL/min

Question: What about the “Bile flow per kg b.w.” value ([3]; rat, 10-20 min) of the same compound?
Answer: .08448 ml/min per kg b.w.

Question: What about the “Bile flow per kg l.w.” value ([3]; rat, 10-20 min) of the same compound?
Answer: 2.823 ml/min per kg l.w.

Question: And the Biliary excretion rate ([3]; rat, 10-20 min)?
Answer: .212 µmol/min

Question: What about the “Biliary excretion rate per kg b.w.” value ([3]; rat, 10-20 min) of the same compound?
Answer: .488 umoles/min per kg b.w.

Question: And the “Biliary excretion rate per kg l.w.” value ([3]; rat, 10-20 min)?
Answer: 16.308 umoles/min per kg l.w.

Question: And the “umoles in bile sample” value ([3]; rat, 10-20 min)?
Answer: 2.12 UMOLES

Question: What about the Bile flow ([3]; rat, 20-30 min) of the same compound?
Answer: .04050 mL/min

Question: And the “Bile flow per kg b.w.” value ([3]; rat, 20-30 min)?
Answer: .09310 ml/min per kg b.w.

Question: And the “Bile flow per kg l.w.” value ([3]; rat, 20-30 min)?
Answer: 3.111 ml/min per kg l.w.

Question: And the Biliary excretion rate ([3]; rat, 20-30 min)?
Answer: .261 µmol/min

Question: And the “Biliary excretion rate per kg b.w.” value ([3]; rat, 20-30 min)?
Answer: .599 umoles/min per kg b.w.

Question: And the “Biliary excretion rate per kg l.w.” value ([3]; rat, 20-30 min)?
Answer: 20.020 umoles/min per kg l.w.

Question: What about the “umoles in bile sample” value ([3]; rat, 20-30 min) of the same compound?
Answer: 2.61 UMOLES

Question: What about the Bile flow ([3]; rat, 30-40 min) of the same compound?
Answer: .02992 mL/min

Question: What about the “Bile flow per kg b.w.” value ([3]; rat, 30-40 min) of the same compound?
Answer: .06878 ml/min per kg b.w.

Question: And the “Bile flow per kg l.w.” value ([3]; rat, 30-40 min)?
Answer: 2.298 ml/min per kg l.w.

Question: And the Biliary excretion rate ([3]; rat, 30-40 min)?
Answer: .233 µmol/min

Question: What about the “Biliary excretion rate per kg b.w.” value ([3]; rat, 30-40 min) of the same compound?
Answer: .537 umoles/min per kg b.w.

Question: And the “Biliary excretion rate per kg l.w.” value ([3]; rat, 30-40 min)?
Answer: 17.931 umoles/min per kg l.w.

Question: And the “umoles in bile sample” value ([3]; rat, 30-40 min)?
Answer: 2.33 UMOLES

Question: And the Bile flow ([3]; rat, 40-50 min)?
Answer: .03047 mL/min

Question: What about the “Bile flow per kg b.w.” value ([3]; rat, 40-50 min) of the same compound?
Answer: .07005 ml/min per kg b.w.

Question: What about the “Bile flow per kg l.w.” value ([3]; rat, 40-50 min) of the same compound?
Answer: 2.34 ml/min per kg l.w.

Question: What about the Biliary excretion rate ([3]; rat, 40-50 min) of the same compound?
Answer: .233 µmol/min

Question: What about the “Biliary excretion rate per kg b.w.” value ([3]; rat, 40-50 min) of the same compound?
Answer: .535 umoles/min per kg b.w.

Question: What about the “Biliary excretion rate per kg l.w.” value ([3]; rat, 40-50 min) of the same compound?
Answer: 17.882 umoles/min per kg l.w.

Question: And the “umoles in bile sample” value ([3]; rat, 40-50 min)?
Answer: 2.33 UMOLES

Question: What about the Bile flow ([3]; rat, 50-60 min) of the same compound?
Answer: .02817 mL/min

Question: And the “Bile flow per kg b.w.” value ([3]; rat, 50-60 min)?
Answer: .06476 ml/min per kg b.w.

Question: And the “Bile flow per kg l.w.” value ([3]; rat, 50-60 min)?
Answer: 2.164 ml/min per kg l.w.

Question: And the Biliary excretion rate ([3]; rat, 50-60 min)?
Answer: .238 µmol/min

Question: What about the “Biliary excretion rate per kg b.w.” value ([3]; rat, 50-60 min) of the same compound?
Answer: .548 umoles/min per kg b.w.

Question: And the “Biliary excretion rate per kg l.w.” value ([3]; rat, 50-60 min)?
Answer: 18.307 umoles/min per kg l.w.

Question: And the “umoles in bile sample” value ([3]; rat, 50-60 min)?
Answer: 2.38 UMOLES

Question: And the Bile flow ([3]; rat, 60-70 min)?
Answer: .02721 mL/min

Question: And the “Bile flow per kg b.w.” value ([3]; rat, 60-70 min)?
Answer: .06255 ml/min per kg b.w.

Question: What about the “Bile flow per kg l.w.” value ([3]; rat, 60-70 min) of the same compound?
Answer: 2.09 ml/min per kg l.w.

Question: What about the Biliary excretion rate ([3]; rat, 60-70 min) of the same compound?
Answer: .146 µmol/min

Question: What about the “Biliary excretion rate per kg b.w.” value ([3]; rat, 60-70 min) of the same compound?
Answer: .336 umoles/min per kg b.w.

Question: What about the “Biliary excretion rate per kg l.w.” value ([3]; rat, 60-70 min) of the same compound?
Answer: 11.228 umoles/min per kg l.w.

Question: And the “umoles in bile sample” value ([3]; rat, 60-70 min)?
Answer: 1.46 UMOLES

Question: What about the Bile flow ([3]; rat, 70-80 min) of the same compound?
Answer: .02653 mL/min

Question: And the “Bile flow per kg b.w.” value ([3]; rat, 70-80 min)?
Answer: .06099 ml/min per kg b.w.

Question: What about the “Bile flow per kg l.w.” value ([3]; rat, 70-80 min) of the same compound?
Answer: 2.038 ml/min per kg l.w.

Question: And the Biliary excretion rate ([3]; rat, 70-80 min)?
Answer: .141 µmol/min

Question: What about the “Biliary excretion rate per kg b.w.” value ([3]; rat, 70-80 min) of the same compound?
Answer: .324 umoles/min per kg b.w.

Question: And the “Biliary excretion rate per kg l.w.” value ([3]; rat, 70-80 min)?
Answer: 10.811 umoles/min per kg l.w.

Question: What about the “umoles in bile sample” value ([3]; rat, 70-80 min) of the same compound?
Answer: 1.41 UMOLES

Question: And the Bile flow ([3]; rat, 80-90 min)?
Answer: .02586 mL/min

Question: What about the “Bile flow per kg b.w.” value ([3]; rat, 80-90 min) of the same compound?
Answer: .05945 ml/min per kg b.w.
